Values of other authors, collected in patent publication US20050272717A1, “Treatment of aromatase inhibitor therapy-related osteoporosis” (priority 2004, published 2005).

What was measured:
[1] = system: bone; settings: preclinical studies
[2] = system: breast cancer cells

Q: Which compressive bone strength [1] does the source give for `Cc1c(-c2ccc(O)cc2)n(Cc2ccc(OCCN3CCCCCC3)cc2)c2ccc(O)cc12` [bazedoxifene, 1-[4-(2-azepan-1-yl-ethoxy)-benzyl]-2-(4-hydroxy-phenyl)-3-methyl-1H-indol-5-ol] here?
A: The compressive bone strength was “improved”.

Q: What about the histomorphometric profile ([1]; compared with raloxifene) of the same molecule?
A: Its histomorphometric profile is “superior to that of raloxifene”.

Q: And the “estradiol-stimulated proliferation of breast cancer cells” value [2]?
A: The value was “inhibits”.
